Reference: US8455501B2, “N-(5-cycloalkyl)-pyridin-3-yl carboxamides” (Hoffmann-La Roche Inc, priority 2011, dated 2013)

What was measured:
human CB2 receptor = biological target: T1, human CB2 receptor (Homo sapiens, UniProt P34972); experiment: CB2 receptor affinity, displacement of [3H]-CP-55,940; format: binding; details: HEK cell membranes, radioligand [3H]-CP-55,940
T1 construct: expressed in transfected cells; host or cells: human embryonic kidney (HEK) cells, Semliki Forest Virus system, membrane preparation
Experimental: (§1) CB1 and CB2 Receptor Affinity
(§2) The affinity of the compounds of the invention for cannabinoid CB2 receptors was determined using membrane preparations of human embryonic kidney (HEK) cells in which the human CB2 receptor is transiently transfected using a Semliki Forest Virus system in conjunction with [^3H]-CP-55,940 as radioligand. After incubation of freshly prepared cell membrane preparation with the [^3H]-ligand, with or without addition of compounds of the invention, separation of bound and free ligand was performed by filtration over glass fiber filters. Radioactivity on the filter was measured by scintillation counting.
(§3) The ability of the compounds to displace the radioligand [^3H]-CP-55,940 was measured at a concentration of 10 μM and values provided as [% inhibition @10 μM] both for the CB1 and CB2 receptor assay, The lower % inhibition is, the lower the likelihood of side effects based on CB1 or CB2 receptor inhibition is.

human CB1 receptor = biological target: T2, human CB1 receptor (Homo sapiens, UniProt P21554); experiment: CB1 receptor affinity, displacement of [3H]-CP-55,940; format: binding; details: HEK cell membranes, radioligand [3H]-CP-55,940
T2 construct: expressed in transfected cells; host or cells: human embryonic kidney (HEK) cells, Semliki Forest Virus system, membrane preparation
Experimental: as §1
as §2, with “cannabinoid” for “cannabinoid CB2”, “CB1” for “CB2”, “[3H]-CP-55,940” for “[^3H]-CP-55,940”
as §3

ABCA1 protein = experiment: Detection of upregulation of ABCA1 protein in cells (ApoA-I binding, High Content Image Analysis); format: cell-based; details: THP-1 macrophage cells, 24 hrs with compound
Experimental: Detection of upregulation of ABCA1 protein in cells
The ability of compounds of the invention to increase the level of ABCA1 protein is determined in replicate cultures of THP-1 macrophage cells in 96-well microplates. Cells are plated at an initial density of 100,000 cells/well in 100 μl medium and differentiated to adherent macrophages with the addition of PMA (100 nM) for 68 hrs in 10% fetal bovine serum, 3 μl/L of b-mercaptoethanol, RPMI-1640 medium. Then, cells are incubated with RPMI-1640 medium containing 1% FCS, 25 μg/ml acetylated LDL, for 24 hours at 37° C. Following incubation with acetylated LDL, cells are washed twice with 50 μl PBS and incubated with 100 μl of RPMI-1640 medium containing the compound of interest solubilized in DMSO for an additional 24 hrs. The final DMSO concentration in presence of cells is maintained at 0.5%. ApoA-I binding assay using High Content Image Analysis is initiated by replacing with fresh medium, RPMI without Phenol Red, 0.2% BSA containing AlexaFluor®647 labeled ApoA-I for 2 h/37° C./5% CO2. Then, cells are fixed with 4% Formaldehyde in PBS (15 min, RT). Following Nuclei are stained with Hoechst solution (3 μM PBS) and Cytoplasm with Cell Mask Blue (2 μg/ml PBS), 15 min, RT. Finally the stained cells are fixed with a second round of formaldehyde treatment. Fixed stained cells are washed and kept in PBS at 4° C. and can be read immediately until one month after preparation.
The Alexa Fluor 647-labeled Apolipoprotein A-I (20 nM) was prepared as follows: Human recombinant Apolipoprotein A-I (ApoA-I) was exchanged to a buffer of 0.02 M NaHCO3 at pH 8.2 on an NAP desalting column (GE Healthcare) and brought to a concentration to 40 μM (1.13 mg/ml) by adjustment with the same buffer. The ApoA-I was fluorescently labeled by incubation with Alexa Fluor carboxylic acid succimidyl ester (Alexa Fluor 647, Invitrogen A-20006) at a 2:1 molar ratio (Alexa to ApoA-I) for 1 h under shaking at RT. The remaining unconjugated label was removed by buffer exchange to 0.02M NaHCO3 at pH 8.2.
Imaging and data collection were performed on an OPERA confocal microplate imaging reader using a 20× water immersion objective and UV360 or 405 laser to identify the cell nuclei and a 635 laser to identify the fluorescent ApoA-I. Eight fields of view are captured per well. Image capture and analysis was performed with the Acapella software. Background fluorescence detected in control wells without ApoA-I was subtracted.
Using XLfit3 program (ID Business Solutions Ltd. UK), the model 205 for Dose Response One Site is used to calculate the EC50 values. […] Particularly, the compounds of the present invention have EC50 values in a range of 0.1 μM to 3 μM.

T1 sequence (P34972 whole entry): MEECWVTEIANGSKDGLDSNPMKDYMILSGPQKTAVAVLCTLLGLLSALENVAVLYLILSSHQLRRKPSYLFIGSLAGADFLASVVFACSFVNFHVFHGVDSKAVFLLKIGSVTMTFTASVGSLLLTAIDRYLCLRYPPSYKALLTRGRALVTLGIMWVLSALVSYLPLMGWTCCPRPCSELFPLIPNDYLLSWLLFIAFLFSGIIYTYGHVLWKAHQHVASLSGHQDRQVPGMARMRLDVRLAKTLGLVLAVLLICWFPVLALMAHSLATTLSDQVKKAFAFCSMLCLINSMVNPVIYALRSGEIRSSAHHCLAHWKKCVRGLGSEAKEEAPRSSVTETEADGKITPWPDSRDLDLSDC
T2 sequence (P21554 whole entry): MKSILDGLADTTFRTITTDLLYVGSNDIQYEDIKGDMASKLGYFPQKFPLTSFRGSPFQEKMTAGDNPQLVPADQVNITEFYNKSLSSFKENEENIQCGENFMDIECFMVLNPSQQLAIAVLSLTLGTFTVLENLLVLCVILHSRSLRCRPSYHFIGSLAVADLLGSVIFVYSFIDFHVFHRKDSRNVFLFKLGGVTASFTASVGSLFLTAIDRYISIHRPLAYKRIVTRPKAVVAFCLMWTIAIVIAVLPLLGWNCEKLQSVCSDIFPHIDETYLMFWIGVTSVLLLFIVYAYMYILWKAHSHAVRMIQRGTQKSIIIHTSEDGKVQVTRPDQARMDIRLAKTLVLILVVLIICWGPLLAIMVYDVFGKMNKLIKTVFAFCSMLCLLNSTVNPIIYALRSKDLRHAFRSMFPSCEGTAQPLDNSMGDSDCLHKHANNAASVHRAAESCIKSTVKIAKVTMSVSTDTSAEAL

Structure (SMILES) | inhibition at 10 µM (human CB2 receptor) [%] | inhibition at 10 µM (human CB1 receptor) [%] | % increase of ABCA1 at 3 μM (ABCA1 protein) [% @ 3 μM]
O=C(Nc1cnc(OCC(F)(F)F)c(C2CCCC2)c1)c1ccccn1 [Example 5, pyridine-2-carboxylic acid [5-cyclopentyl-6-(2,2,2-trifluoro-ethoxy)-pyridin-3-yl]-amide] | -8 | 28 | >45
Cc1cc(C(=O)Nc2cnc(OCC(F)(F)F)c(C3CCCCC3)c2)[nH]n1 [Example 9, 5-methyl-2H-pyrazole-3-carboxylic acid [5-cyclohexyl-6-(2,2,2-trifluoro-ethoxy)-pyridin-3-yl]-amide] | -9 | 27 | >45
Cc1ocnc1C(=O)Nc1cnc(OCC(F)(F)F)c(C2CCCCC2)c1 [Example 10, 5-methyl-oxazole-4-carboxylic acid [5-cyclohexyl-6-(2,2,2-trifluoro-ethoxy)-pyridin-3-yl]-amide] | -8 | 13 | >45
O=C(Nc1cnc(OCC(F)(F)F)c(C2CCCCC2)c1)c1ccccn1 [Example 11, pyridine-2-carboxylic acid [5-cyclohexyl-6-(2,2,2-trifluoro-ethoxy)-pyridin-3-yl]-amide] | 3 | 33 | >45
O=C(Nc1cnc(OCC(F)(F)F)c(C2CCCCC2)c1)c1ccccc1 [Example 13, N-[5-cyclohexyl-6-(2,2,2-trifluoro-ethoxy)-pyridin-3-yl]-benzamide] | -13 | 38 | >45

Second part, led by results:

inhibition at 10 µM (human CB2 receptor) [%] | inhibition at 10 µM (human CB1 receptor) [%] | Structure (SMILES) | % increase of ABCA1 at 3 μM (ABCA1 protein) [% @ 3 μM]
-9 | 4 | COc1cncc(C(=O)Nc2cnc(OCC(F)(F)F)c(C3CCCC3)c2)c1 [Example 1, N-[5-cyclopentyl-6-(2,2,2-trifluoro-ethoxy)-pyridin-3-yl]-5-methoxy-nicotinamide] | >45
-12 | 22 | Cc1cc(C(=O)Nc2cnc(OCC(F)(F)F)c(C3CCCC3)c2)[nH]n1 [Example 2, 5-methyl-2H-pyrazole-3-carboxylic acid [5-cyclopentyl-6-(2,2,2-trifluoro-ethoxy)-pyridin-3-yl]-amide] | >45
0 | 26 | Cc1ocnc1C(=O)Nc1cnc(OCC(F)(F)F)c(C2CCCC2)c1 [Example 3, 5-methyl-oxazole-4-carboxylic acid [5-cyclopentyl-6-(2,2,2-trifluoro-ethoxy)-pyridin-3-yl]-amide] | >45
2 | 34 | O=C(Nc1cnc(OCC(F)(F)F)c(C2CCCC2)c1)c1cccnc1 [Example 4, N-[5-cyclopentyl-6-(2,2,2-trifluoro-ethoxy)-pyridin-3-yl]-nicotinamide] | >45
-5 | 40 | O=C(Nc1cnc(OCC(F)(F)F)c(C2CCCC2)c1)c1ccccc1 [Example 6, N-[5-cyclopentyl-6-(2,2,2-trifluoro-ethoxy)-pyridin-3-yl]-benzamide] | >45
-12 | 21 | O=C(Nc1cnc(OCC(F)(F)F)c(C2CCCC2)c1)c1cncnc1 [Example 7, pyrimidine-5-carboxylic acid [5-cyclopentyl-6-(2,2,2-trifluoro-ethoxy)-pyridin-3-yl]-amide] | >45
-13 | 28 | O=C(Nc1cnc(OCC(F)(F)F)c(C2CCCCC2)c1)c1cccnc1 [Example 8, N-[5-cyclohexyl-6-(2,2,2-trifluoro-ethoxy)-pyridin-3-yl]-nicotinamide] | >45
-13 | 19 | COc1cncc(C(=O)Nc2cnc(OCC(F)(F)F)c(C3CCCCC3)c2)c1 [Example 12, N-[5-cyclohexyl-6-(2,2,2-trifluoro-ethoxy)-pyridin-3-yl]-5-methoxy-nicotinamide] | >45
